According to ChEMBL document CHEMBL3217743, “Reduction of acyl glucuronidation in a series of acidic 11-hydroxysteroid dehydrogenase type 1 (11-HSD1) inhibitors: the discovery of AZD6925” (Medchemcomm, 2012):

Assay: Drug excretion in bile duct cannulated rat bile assessed as ratio of glucuronidated to oxidized compound level by HPLC analysis
Assay type: ADME, tissue-based
Details: in vivo

Row | Ratio | SMILES
1 | 7.5 | CCCSc1nc(N2CCC[C@@H](CC(=O)O)C2)ccc1C(=O)NC1CCCCC1 [AZD-4017]

Assay: Drug metabolism in dog hepatocytes assessed as ratio of glucuronidated to oxidized compound level by LC-MS/MS analysis
Assay type: ADME, cell-based, Canis lupus familiaris, Hepatocyte
Details: not given

Row | Ratio | SMILES
2 | 4.1 | CCCSc1nc(N2CCC[C@@H](CC(=O)O)C2)ccc1C(=O)NC1CCCCC1 [AZD-4017]

Assay: Drug excretion in bile duct cannulated rat urine assessed as ratio of glucuronidated to oxidized compound level by HPLC analysis
Assay type: ADME
Details: in vivo

Row | Ratio | SMILES
3 | 2.4 | CCCSc1nc(N2CCC[C@@H](CC(=O)O)C2)ccc1C(=O)NC1CCCCC1 [AZD-4017]

Assay: Drug metabolism in rat hepatocytes assessed as ratio of glucuronidated to oxidized compound level by LC-MS/MS analysis
Assay type: ADME, cell-based, Hepatocyte
Details: not given

Row | Ratio | SMILES
4 | 2.1 | CCCSc1nc(N2CCC[C@@H](CC(=O)O)C2)ccc1C(=O)NC1CCCCC1 [AZD-4017]

Assay: Inhibition of N-terminal 6-His-tagged cynomolgus monkey full length 11beta-HSD1 assessed as conversion of cortisone to cortisol after 25 mins by HTRF assay
Parameters: species or system Macaca fascicularis
Details: not given

Row | IC50 [µM] | SMILES
5 | 0.029 | CCCSc1nc(N2CCC[C@@H](CC(=O)O)C2)ccc1C(=O)NC1CCCCC1 [AZD-4017]

Assay: Clearance in rat
Assay type: ADME, organism-based
Details: in vivo

Row | clearance [mL/min/kg] | SMILES
6 | 3 | CCCSc1nc(N2CCC(C(=O)O)C2)ccc1C(=O)NC1CCCCC1 (configuration not stated)
7 | 42 | CCCSc1nc(N2C[C@@H]3[C@H](C2)[C@H]3C(=O)O)ccc1C(=O)N[C@H]1C2CC3CC1C[C@](O)(C3)C2
8 | 31 | CCCSc1nc(N2CCC[C@@H](Cc3nnn[nH]3)C2)ccc1C(=O)NC1CCCCC1
9 | 8 | CCCSc1nc(N2CCCC(C3(C(=O)O)CC3)C2)ccc1C(=O)NC1CCCCC1 (configuration not stated)
10 | 2 | CCCSc1nc(N2CC[C@H](CC(=O)O)C2)ccc1C(=O)NC1CCCCC1
11 | 43 | O=C(N[C@H]1C2CC3CC1C[C@](O)(C3)C2)c1ccc(N2C[C@@H]3[C@H](C2)[C@H]3C(=O)O)nc1SC1CCCC1
12 | 18 | O=C(O)[C@H]1[C@@H]2CN(c3ccc(C(=O)N4CCC(c5cccnc5)C4)c(SC4CCCC4)n3)C[C@@H]21 (some centres not stated)
13 | 2 | CCCSc1nc(N2C[C@@H]3[C@H](C2)[C@H]3C(=O)O)ccc1C(=O)NC1CCCCC1
14 | 9 | CCCSc1nc(N2CCCC(C(C)(C)C(=O)O)C2)ccc1C(=O)NC1CCCCC1 (configuration not stated)
15 | 35 | CCCSc1nc(N2CCC[C@@H](CC(=O)NS(C)(=O)=O)C2)ccc1C(=O)NC1CCCCC1
16 | 9 | O=C(N[C@H]1C2CC3CC1C[C@](OC(F)F)(C3)C2)c1ccc(N2C[C@@H]3[C@H](C2)[C@H]3C(=O)O)nc1SC1CCCC1

Assay: Octanol-buffer partition coefficient, log D of the compound at pH 7.4 after 30 mins by shake-flask method
Assay type: physicochemical
Details: not given

Row | logD at 0.5 h | SMILES
17 | 1.1 | CCCSc1nc(N2CCC(C(=O)O)C2)ccc1C(=O)NC1CCCCC1 (configuration not stated)
18 | 0.8 | CCCSc1nc(N2C[C@@H]3[C@H](C2)[C@H]3C(=O)O)ccc1C(=O)N[C@H]1C2CC3CC1C[C@](O)(C3)C2
19 | 2.4 | CCCSc1nc(N2CCC[C@@H](Cc3nnn[nH]3)C2)ccc1C(=O)NC1CCCCC1
20 | 3.5 | CCCSc1nc(N2CCCC(C3(C(=O)O)CC3)C2)ccc1C(=O)NC1CCCCC1 (configuration not stated)
21 | 1.7 | CCCSc1nc(N2CC[C@H](CC(=O)O)C2)ccc1C(=O)NC1CCCCC1
22 | 1.5 | O=C(N[C@H]1C2CC3CC1C[C@](O)(C3)C2)c1ccc(N2C[C@@H]3[C@H](C2)[C@H]3C(=O)O)nc1SC1CCCC1
23 | 1.2 | O=C(O)[C@H]1[C@@H]2CN(c3ccc(C(=O)N4CCC(c5cccnc5)C4)c(SC4CCCC4)n3)C[C@@H]21 (some centres not stated)
24 | 1.8 | CCCSc1nc(N2C[C@@H]3[C@H](C2)[C@H]3C(=O)O)ccc1C(=O)NC1CCCCC1
25 | 3.3 | CCCSc1nc(N2CCCC(C(C)(C)C(=O)O)C2)ccc1C(=O)NC1CCCCC1 (configuration not stated)
26 | 1.6 | CCCSc1nc(N2CCC[C@@H](CC(=O)NS(C)(=O)=O)C2)ccc1C(=O)NC1CCCCC1
27 | 3.4 | O=C(N[C@H]1C2CC3CC1C[C@](OC(F)F)(C3)C2)c1ccc(N2C[C@@H]3[C@H](C2)[C@H]3C(=O)O)nc1SC1CCCC1

Assay: Drug excretion in bile duct cannulated rat urine assessed as compound remaining by HPLC analysis
Assay type: ADME, tissue-based
Details: read-out: Stability

Row | dose excreted [%] | SMILES
28 | 4 | CCCSc1nc(N2CCC[C@@H](CC(=O)O)C2)ccc1C(=O)NC1CCCCC1 [AZD-4017]

Assay: Inhibition of N-terminal 6-His-tagged dog full length 11beta-HSD1 assessed as conversion of cortisone to cortisol after 25 mins by HTRF assay
Parameters: species or system Canis lupus familiaris
Details: not given

Row | IC50 [µM] | SMILES
29 | 3.77 | CCCSc1nc(N2CCC[C@@H](CC(=O)O)C2)ccc1C(=O)NC1CCCCC1 [AZD-4017]

Assay: Drug metabolism in human hepatocytes assessed as ratio of glucuronidated to oxidized compound level by LC-MS/MS analysis
Assay type: ADME, cell-based, Hepatocyte
Details: not given

Row | Ratio | SMILES
30 | 6 | CCCSc1nc(N2CCC[C@@H](CC(=O)O)C2)ccc1C(=O)NC1CCCCC1 [AZD-4017]

Assay: Fraction unbound in rat plasma by equilibrium dialysis technique
Assay type: ADME, cell-free
Details: not given

Row | fraction unbound | SMILES
31 | 0.012 | CCCSc1nc(N2CCC(C(=O)O)C2)ccc1C(=O)NC1CCCCC1 (configuration not stated)
32 | 0.108 | CCCSc1nc(N2C[C@@H]3[C@H](C2)[C@H]3C(=O)O)ccc1C(=O)N[C@H]1C2CC3CC1C[C@](O)(C3)C2
33 | 0.018 | CCCSc1nc(N2CCC[C@@H](CC(=O)O)C2)ccc1C(=O)NC1CCCCC1 [AZD-4017]
34 | 0.006 | CCCSc1nc(N2CCC[C@@H](Cc3nnn[nH]3)C2)ccc1C(=O)NC1CCCCC1
35 | 0.002 | CCCSc1nc(N2CCCC(C3(C(=O)O)CC3)C2)ccc1C(=O)NC1CCCCC1 (configuration not stated)
36 | 0.01 | CCCSc1nc(N2CC[C@H](CC(=O)O)C2)ccc1C(=O)NC1CCCCC1
37 | 0.04 | O=C(N[C@H]1C2CC3CC1C[C@](O)(C3)C2)c1ccc(N2C[C@@H]3[C@H](C2)[C@H]3C(=O)O)nc1SC1CCCC1
38 | 0.034 | O=C(O)[C@H]1[C@@H]2CN(c3ccc(C(=O)N4CCC(c5cccnc5)C4)c(SC4CCCC4)n3)C[C@@H]21 (some centres not stated)
39 | 0.025 | CCCSc1nc(N2C[C@@H]3[C@H](C2)[C@H]3C(=O)O)ccc1C(=O)NC1CCCCC1
40 | 0.004 | CCCSc1nc(N2CCCC(C(C)(C)C(=O)O)C2)ccc1C(=O)NC1CCCCC1 (configuration not stated)
41 | 0.017 | CCCSc1nc(N2CCC[C@@H](CC(=O)NS(C)(=O)=O)C2)ccc1C(=O)NC1CCCCC1
42 | 0.005 | O=C(N[C@H]1C2CC3CC1C[C@](OC(F)F)(C3)C2)c1ccc(N2C[C@@H]3[C@H](C2)[C@H]3C(=O)O)nc1SC1CCCC1

Assay: Apparent permeability from apical to basolateral side in human Caco2 cells
Assay type: ADME, cell-based
Details: Caco-2

Row | Papp A→B [×10⁻⁶ cm/s] | SMILES
43 | 2 | O=C(O)[C@H]1[C@@H]2CN(c3ccc(C(=O)N4CCC(c5cccnc5)C4)c(SC4CCCC4)n3)C[C@@H]21 (some centres not stated)

Assay: in vivo
Details: rat

Row | bioavailability [%] | SMILES
44 | 52 | CCCSc1nc(N2CCC(C(=O)O)C2)ccc1C(=O)NC1CCCCC1 (configuration not stated)
45 | 48 | CCCSc1nc(N2C[C@@H]3[C@H](C2)[C@H]3C(=O)O)ccc1C(=O)N[C@H]1C2CC3CC1C[C@](O)(C3)C2
46 | 66 | CCCSc1nc(N2CCC[C@@H](CC(=O)O)C2)ccc1C(=O)NC1CCCCC1 [AZD-4017]
47 | 21 | CCCSc1nc(N2CCC[C@@H](Cc3nnn[nH]3)C2)ccc1C(=O)NC1CCCCC1
48 | 71 | CCCSc1nc(N2CCCC(C3(C(=O)O)CC3)C2)ccc1C(=O)NC1CCCCC1 (configuration not stated)
49 | 96 | CCCSc1nc(N2CC[C@H](CC(=O)O)C2)ccc1C(=O)NC1CCCCC1
50 | 57 | O=C(N[C@H]1C2CC3CC1C[C@](O)(C3)C2)c1ccc(N2C[C@@H]3[C@H](C2)[C@H]3C(=O)O)nc1SC1CCCC1
51 | 3 | O=C(O)[C@H]1[C@@H]2CN(c3ccc(C(=O)N4CCC(c5cccnc5)C4)c(SC4CCCC4)n3)C[C@@H]21 (some centres not stated)
52 | 80 | CCCSc1nc(N2C[C@@H]3[C@H](C2)[C@H]3C(=O)O)ccc1C(=O)NC1CCCCC1
53 | 84 | CCCSc1nc(N2CCCC(C(C)(C)C(=O)O)C2)ccc1C(=O)NC1CCCCC1 (configuration not stated)
54 | 5 | CCCSc1nc(N2CCC[C@@H](CC(=O)NS(C)(=O)=O)C2)ccc1C(=O)NC1CCCCC1
55 | 94 | O=C(N[C@H]1C2CC3CC1C[C@](OC(F)F)(C3)C2)c1ccc(N2C[C@@H]3[C@H](C2)[C@H]3C(=O)O)nc1SC1CCCC1

Assay: Clearance in rat hepatocytes measured per 10^6 cells
Assay type: ADME, cell-based, Hepatocyte
Details: read-out: CLH

Row | hepatocyte CLint [µL/min/1e6 cells] | SMILES
56 | 3 | CCCSc1nc(N2CCC(C(=O)O)C2)ccc1C(=O)NC1CCCCC1 (configuration not stated)
57 | < 2 | CCCSc1nc(N2C[C@@H]3[C@H](C2)[C@H]3C(=O)O)ccc1C(=O)N[C@H]1C2CC3CC1C[C@](O)(C3)C2
58 | < 2 | CCCSc1nc(N2CCC[C@@H](CC(=O)O)C2)ccc1C(=O)NC1CCCCC1 [AZD-4017]
59 | 9 | CCCSc1nc(N2CCC[C@@H](Cc3nnn[nH]3)C2)ccc1C(=O)NC1CCCCC1
60 | 15 | CCCSc1nc(N2CCCC(C3(C(=O)O)CC3)C2)ccc1C(=O)NC1CCCCC1 (configuration not stated)
61 | < 2 | CCCSc1nc(N2CC[C@H](CC(=O)O)C2)ccc1C(=O)NC1CCCCC1
62 | 4 | O=C(N[C@H]1C2CC3CC1C[C@](O)(C3)C2)c1ccc(N2C[C@@H]3[C@H](C2)[C@H]3C(=O)O)nc1SC1CCCC1
63 | 20 | O=C(O)[C@H]1[C@@H]2CN(c3ccc(C(=O)N4CCC(c5cccnc5)C4)c(SC4CCCC4)n3)C[C@@H]21 (some centres not stated)
64 | < 2 | CCCSc1nc(N2C[C@@H]3[C@H](C2)[C@H]3C(=O)O)ccc1C(=O)NC1CCCCC1
65 | 22 | CCCSc1nc(N2CCCC(C(C)(C)C(=O)O)C2)ccc1C(=O)NC1CCCCC1 (configuration not stated)
66 | 38 | CCCSc1nc(N2CCC[C@@H](CC(=O)NS(C)(=O)=O)C2)ccc1C(=O)NC1CCCCC1
67 | 7 | O=C(N[C@H]1C2CC3CC1C[C@](OC(F)F)(C3)C2)c1ccc(N2C[C@@H]3[C@H](C2)[C@H]3C(=O)O)nc1SC1CCCC1
